Laboratory results published in ChEMBL document CHEMBL4732075, “PROTACs suppression of GSK-3β, a crucial kinase in neurodegenerative diseases” (Eur J Med Chem, 2021).
Calls of active or inactive are those of the source. The calls are words filed in the database; no cut-off is given here.

Tests used:
[1] = target: T1, Glycogen synthase kinase-3 beta (Homo sapiens, UniProt P49841); test: Inhibition of N-terminal His6-tagged recombinant human GSK3beta H350L mutant expressed in baculovirus infected Sf21 cells using GSM as substrate incubated for 30 mins in presence of ATP by Kinase-Glo luminescent assay
Target sequence in this assay (P49841 whole entry): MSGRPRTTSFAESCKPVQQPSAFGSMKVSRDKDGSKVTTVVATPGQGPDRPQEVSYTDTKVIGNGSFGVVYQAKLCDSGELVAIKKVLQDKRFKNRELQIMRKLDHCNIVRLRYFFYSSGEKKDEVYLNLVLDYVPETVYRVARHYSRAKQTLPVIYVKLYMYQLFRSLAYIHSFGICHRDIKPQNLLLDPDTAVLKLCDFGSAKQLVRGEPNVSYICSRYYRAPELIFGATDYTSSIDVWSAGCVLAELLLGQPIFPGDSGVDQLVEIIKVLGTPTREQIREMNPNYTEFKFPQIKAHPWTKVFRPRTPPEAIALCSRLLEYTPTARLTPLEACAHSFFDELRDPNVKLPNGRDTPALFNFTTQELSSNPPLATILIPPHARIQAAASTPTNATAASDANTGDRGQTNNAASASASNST

[2] = target: T2, Protein cereblon/Glycogen synthase kinase-3 beta (Rattus norvegicus) (UniProt P18266+Q56AP7); test: Protac activity at CRBN/GSK3beta in rat PC12 cells assessed as GSK3beta degradation by measuring GSK3beta protein level at 10 uM after 10 hrs by Western blotting analysis; type: cell-based; conditions: PC-12
T2 sequence (P18266 whole entry, looked up): as the sequence (P49841 whole entry) above, with V240M, T390P, T392A, A400T, T402A counted along it
T2 sequence (Q56AP7 whole entry, looked up): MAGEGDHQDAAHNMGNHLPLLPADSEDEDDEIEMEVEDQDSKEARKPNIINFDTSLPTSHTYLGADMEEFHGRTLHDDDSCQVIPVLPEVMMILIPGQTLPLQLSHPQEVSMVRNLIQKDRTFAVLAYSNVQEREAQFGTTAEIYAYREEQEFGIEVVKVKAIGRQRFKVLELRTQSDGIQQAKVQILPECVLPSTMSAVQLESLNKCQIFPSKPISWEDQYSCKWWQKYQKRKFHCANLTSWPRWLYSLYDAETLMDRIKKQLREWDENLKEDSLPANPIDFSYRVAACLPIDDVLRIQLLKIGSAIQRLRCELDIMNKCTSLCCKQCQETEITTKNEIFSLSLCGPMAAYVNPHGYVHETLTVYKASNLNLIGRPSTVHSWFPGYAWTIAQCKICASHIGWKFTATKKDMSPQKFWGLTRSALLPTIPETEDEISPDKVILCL

[3] = target: T2, Protein cereblon/Glycogen synthase kinase-3 beta (Rattus norvegicus); test: Protac activity at CRBN/GSK3beta in rat PC12 cells assessed as GSK3beta degradation by measuring GSK3beta protein level at […] preincubated for 2 hrs with […] ligand, pomalidomide followed by compound addition and measured after 8 hrs by Western blotting analysis (reference value: 100 %); type: cell-based; conditions: PC-12, dose 8.3 µM
[4] = target: T2, Protein cereblon/Glycogen synthase kinase-3 beta (Rattus norvegicus); test: Protac activity at CRBN/GSK3beta in rat PC12 cells assessed as GSK3beta degradation by measuring GSK3beta protein level at 2.8 uM after 10 hrs by Western blotting analysis (reference value: 100 %); type: cell-based; conditions: PC-12
[5] = target: T2, Protein cereblon/Glycogen synthase kinase-3 beta (Rattus norvegicus); test: Protac activity at CRBN/GSK3beta in rat PC12 cells assessed as GSK3beta degradation by measuring GSK3beta protein level at […] after 10 hrs by Western blotting analysis (reference value: 100 %); type: cell-based; conditions: PC-12, dose 8.3 µM
[6] = target: T2, Protein cereblon/Glycogen synthase kinase-3 beta (Rattus norvegicus); test: Protac activity at CRBN/GSK3beta in rat PC12 cells assessed as GSK3beta degradation by measuring GSK3beta protein level at 25 uM after 10 hrs by Western blotting analysis (reference value: 100 %); type: cell-based; conditions: PC-12
[7] = target: T2, Protein cereblon/Glycogen synthase kinase-3 beta (Rattus norvegicus); test: Protac activity at CRBN/GSK3beta in rat PC12 cells assessed as GSK3beta degradation by measuring GSK3beta protein level at […] preincubated for 2 hrs with proteasome inhibitor, MG132 followed by compound addition and measured after 8 hrs by Western blotting analysis (reference value: 100 %); type: cell-based; design: scale not given: the % may be the effect or the level left; conditions: PC-12, dose 8.3 µM
[8] = target: T2, Protein cereblon/Glycogen synthase kinase-3 beta (Rattus norvegicus); test: Protac activity at CRBN/GSK3beta in rat PC12 cells assessed as GSK3beta degradation by measuring GSK3beta protein level at […] preincubated for 2 hrs with GSK3beta inhibitor, G1 followed by compound addition and measured after 8 hrs by Western blotting analysis (reference value: 100 %); type: cell-based; design: scale not given: the % may be the effect or the level left; conditions: PC-12, dose 8.3 µM
[9] = target: T2, Protein cereblon/Glycogen synthase kinase-3 beta (Rattus norvegicus); test: Protac activity at CRBN/GSK3beta in rat PC12 cells assessed as GSK3beta degradation by measuring reduction in GSK3beta protein level after 10 hrs by Western blotting analysis; type: cell-based; conditions: PC-12, dose 2.8-25 µM
[10] = target: Cyclin-dependent kinase 9 (Homo sapiens) (UniProt P50750); test: Inhibition of CDK9 (unknown origin) at 300 nM relative to control
Chain of Cyclin-dependent kinase 9 (Homo sapiens) (P50750 whole entry): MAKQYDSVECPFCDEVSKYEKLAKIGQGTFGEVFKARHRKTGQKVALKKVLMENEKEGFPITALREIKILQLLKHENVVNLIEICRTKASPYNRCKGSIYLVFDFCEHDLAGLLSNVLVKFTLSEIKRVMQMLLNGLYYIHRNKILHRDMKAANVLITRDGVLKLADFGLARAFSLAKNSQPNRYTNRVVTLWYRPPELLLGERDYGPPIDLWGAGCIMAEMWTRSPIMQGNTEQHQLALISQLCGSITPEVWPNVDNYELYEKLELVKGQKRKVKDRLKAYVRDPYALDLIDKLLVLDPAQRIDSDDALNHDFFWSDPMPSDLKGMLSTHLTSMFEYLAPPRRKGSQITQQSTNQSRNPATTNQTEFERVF

[11] = target: Cyclin-dependent kinase 7 (Homo sapiens) (UniProt P50613); test: Inhibition of CDK7 (unknown origin) at 300 nM relative to control
Chain of Cyclin-dependent kinase 7 (Homo sapiens) (P50613 whole entry): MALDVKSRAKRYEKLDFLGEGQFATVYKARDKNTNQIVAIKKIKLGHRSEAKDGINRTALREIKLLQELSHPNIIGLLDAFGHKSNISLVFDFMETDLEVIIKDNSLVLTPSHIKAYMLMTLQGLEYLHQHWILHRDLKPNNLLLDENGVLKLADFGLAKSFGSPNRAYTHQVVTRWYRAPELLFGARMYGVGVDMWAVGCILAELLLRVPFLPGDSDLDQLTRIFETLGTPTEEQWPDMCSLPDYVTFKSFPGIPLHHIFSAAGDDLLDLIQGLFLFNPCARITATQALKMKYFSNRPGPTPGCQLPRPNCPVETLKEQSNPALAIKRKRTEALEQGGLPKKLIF

[12] = target: Cyclin-dependent kinase 4 (Homo sapiens) (UniProt P11802); test: Inhibition of CDK4 (unknown origin) at 300 nM relative to control
Chain of Cyclin-dependent kinase 4 (Homo sapiens) (P11802 whole entry): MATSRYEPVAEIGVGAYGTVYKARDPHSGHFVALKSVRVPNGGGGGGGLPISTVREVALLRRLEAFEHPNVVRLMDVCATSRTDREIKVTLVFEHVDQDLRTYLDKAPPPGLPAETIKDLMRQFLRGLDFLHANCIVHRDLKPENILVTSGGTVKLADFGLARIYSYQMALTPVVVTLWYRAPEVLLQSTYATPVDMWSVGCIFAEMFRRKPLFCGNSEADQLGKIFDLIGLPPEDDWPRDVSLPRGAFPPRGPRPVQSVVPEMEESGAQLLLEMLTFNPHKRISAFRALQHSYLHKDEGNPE

[13] = target: Cyclin-dependent kinase 1 (Homo sapiens) (UniProt P06493); test: Inhibition of CDK1 (unknown origin) at 300 nM relative to control
Chain of Cyclin-dependent kinase 1 (Homo sapiens) (P06493 whole entry, looked up): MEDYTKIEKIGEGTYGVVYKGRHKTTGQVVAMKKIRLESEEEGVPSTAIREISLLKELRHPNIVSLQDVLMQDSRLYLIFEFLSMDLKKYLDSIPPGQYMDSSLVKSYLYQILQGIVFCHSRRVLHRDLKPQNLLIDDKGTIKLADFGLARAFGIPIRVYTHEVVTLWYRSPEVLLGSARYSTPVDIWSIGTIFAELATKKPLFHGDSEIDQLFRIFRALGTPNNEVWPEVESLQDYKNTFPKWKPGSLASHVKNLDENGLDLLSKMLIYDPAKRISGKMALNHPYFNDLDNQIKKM

[14] = target: Mitogen-activated protein kinase 10 (Homo sapiens) (UniProt P53779); test: Inhibition of JNK3 (unknown origin) at 300 nM relative to control
Chain of Mitogen-activated protein kinase 10 (Homo sapiens) (P53779 whole entry): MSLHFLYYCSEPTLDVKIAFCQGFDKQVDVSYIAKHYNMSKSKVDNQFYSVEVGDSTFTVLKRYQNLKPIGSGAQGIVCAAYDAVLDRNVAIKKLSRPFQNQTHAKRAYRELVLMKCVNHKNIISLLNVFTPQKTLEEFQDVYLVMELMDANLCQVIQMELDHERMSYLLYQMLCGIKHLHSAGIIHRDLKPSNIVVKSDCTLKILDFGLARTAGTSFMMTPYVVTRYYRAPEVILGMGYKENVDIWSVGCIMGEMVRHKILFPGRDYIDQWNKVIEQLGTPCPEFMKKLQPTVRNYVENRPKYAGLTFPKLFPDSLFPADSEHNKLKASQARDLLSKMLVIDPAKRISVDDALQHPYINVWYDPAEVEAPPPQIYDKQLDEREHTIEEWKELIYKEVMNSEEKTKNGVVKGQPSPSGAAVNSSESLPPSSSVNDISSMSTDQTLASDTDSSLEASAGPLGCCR

[15] = target: Mitogen-activated protein kinase 9 (Homo sapiens) (UniProt P45984); test: Inhibition of JNK2 (unknown origin) at 300 nM relative to control
Chain of Mitogen-activated protein kinase 9 (Homo sapiens) (P45984 whole entry, looked up): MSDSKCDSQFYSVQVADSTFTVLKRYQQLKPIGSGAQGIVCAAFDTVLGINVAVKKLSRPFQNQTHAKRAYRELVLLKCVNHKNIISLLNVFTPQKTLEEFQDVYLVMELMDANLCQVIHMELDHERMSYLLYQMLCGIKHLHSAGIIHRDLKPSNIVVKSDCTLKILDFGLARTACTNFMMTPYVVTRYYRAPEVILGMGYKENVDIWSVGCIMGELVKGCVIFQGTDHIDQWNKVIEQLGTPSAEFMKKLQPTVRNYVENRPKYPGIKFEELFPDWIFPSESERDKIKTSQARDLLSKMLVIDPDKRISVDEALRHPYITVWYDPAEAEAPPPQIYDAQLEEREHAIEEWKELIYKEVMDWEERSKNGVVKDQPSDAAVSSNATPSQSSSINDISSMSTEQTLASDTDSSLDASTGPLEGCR

[16] = target: Dual specificity tyrosine-phosphorylation-regulated kinase 1B (Homo sapiens) (UniProt Q9Y463); test: Inhibition of DYRK1beta (unknown origin) at 300 nM relative to control
Chain of Dual specificity tyrosine-phosphorylation-regulated kinase 1B (Homo sapiens) (Q9Y463 whole entry, looked up): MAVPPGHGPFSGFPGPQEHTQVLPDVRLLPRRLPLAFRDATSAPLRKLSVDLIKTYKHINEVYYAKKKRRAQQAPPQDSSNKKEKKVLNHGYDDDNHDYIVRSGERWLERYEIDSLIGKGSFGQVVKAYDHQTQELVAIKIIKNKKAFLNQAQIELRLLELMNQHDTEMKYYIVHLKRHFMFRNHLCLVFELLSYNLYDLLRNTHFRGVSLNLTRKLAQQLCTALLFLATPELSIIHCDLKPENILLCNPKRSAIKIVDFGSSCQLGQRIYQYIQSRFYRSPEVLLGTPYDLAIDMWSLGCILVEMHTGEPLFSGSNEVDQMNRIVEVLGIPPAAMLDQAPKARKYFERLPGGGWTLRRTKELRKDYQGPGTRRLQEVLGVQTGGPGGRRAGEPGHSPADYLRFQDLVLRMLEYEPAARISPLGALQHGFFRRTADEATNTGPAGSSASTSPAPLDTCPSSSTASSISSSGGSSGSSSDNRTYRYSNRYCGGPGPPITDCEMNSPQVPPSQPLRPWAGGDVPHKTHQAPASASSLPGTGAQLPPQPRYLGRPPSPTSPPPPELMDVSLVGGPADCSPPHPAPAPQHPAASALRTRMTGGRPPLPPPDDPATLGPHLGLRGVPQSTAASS

[17] = target: Dual specificity tyrosine-phosphorylation-regulated kinase 1A (Homo sapiens) (UniProt Q13627); test: Inhibition of DYRK1alpha (unknown origin) at 300 nM relative to control
[18] = target: T3, Mitogen-activated protein kinase 13 (Homo sapiens) (UniProt O15264); test: Inhibition of p38delta (unknown origin) at 300 nM relative to control
T3 sequence (whole entry): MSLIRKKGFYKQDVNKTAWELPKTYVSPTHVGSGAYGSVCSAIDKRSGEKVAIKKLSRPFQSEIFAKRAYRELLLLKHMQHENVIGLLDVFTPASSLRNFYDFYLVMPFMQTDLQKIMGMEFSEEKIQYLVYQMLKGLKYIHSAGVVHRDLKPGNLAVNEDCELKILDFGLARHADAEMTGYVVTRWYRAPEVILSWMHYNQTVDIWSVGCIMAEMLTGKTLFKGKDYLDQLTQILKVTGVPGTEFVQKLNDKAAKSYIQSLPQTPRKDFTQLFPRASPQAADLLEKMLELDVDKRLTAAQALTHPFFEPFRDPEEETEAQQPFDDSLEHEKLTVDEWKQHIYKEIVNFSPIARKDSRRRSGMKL

[19] = target: T1, Glycogen synthase kinase-3 beta; test: Inhibition of GSK3beta (unknown origin) at 300 nM relative to control
Target sequence in this assay (P49841 whole entry, looked up): as the sequence (P49841 whole entry) above

[20] = target: Glycogen synthase kinase-3 alpha (Homo sapiens) (UniProt P49840); test: Inhibition of GSK3alpha (unknown origin) at 300 nM relative to control
[21] = target: Mitogen-activated protein kinase 11 (Homo sapiens) (UniProt Q15759); test: Inhibition of p38beta (unknown origin) at 300 nM relative to control
[22] = target: Mitogen-activated protein kinase 14 (Homo sapiens) (UniProt Q16539); test: Inhibition of p38alpha (unknown origin) at 300 nM relative to control
[23] = target: Mitogen-activated protein kinase 1 (Homo sapiens) (UniProt P28482); test: Inhibition of ERK2 (unknown origin) at 300 nM relative to control
[24] = target: Mitogen-activated protein kinase 3 (Homo sapiens) (UniProt P27361); test: Inhibition of ERK1 (unknown origin) at 300 nM relative to control
Chain of Mitogen-activated protein kinase 3 (Homo sapiens) (P27361 whole entry): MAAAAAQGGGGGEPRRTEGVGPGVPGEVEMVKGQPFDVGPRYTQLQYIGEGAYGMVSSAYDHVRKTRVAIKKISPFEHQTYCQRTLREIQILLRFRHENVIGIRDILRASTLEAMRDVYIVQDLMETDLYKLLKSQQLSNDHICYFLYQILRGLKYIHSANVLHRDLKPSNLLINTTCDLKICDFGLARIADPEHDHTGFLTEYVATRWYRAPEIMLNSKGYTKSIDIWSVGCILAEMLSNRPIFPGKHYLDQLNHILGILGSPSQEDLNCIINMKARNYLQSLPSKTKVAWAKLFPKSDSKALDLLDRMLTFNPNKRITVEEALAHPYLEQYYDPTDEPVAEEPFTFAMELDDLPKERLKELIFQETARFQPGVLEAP

[25] = tested on: BV-2; test: Anti-neuroinflammatory activity in mouse BV2 cells assessed as reduction in LPS-induced TNFalpha production at 5 uM pretreated for 5 hrs followed by LPS challenge and measured after 24 hrs by immunofluorescence confocal microscopic analysis; type: functional, cell-based; conditions: time 29.0 hrs
[26] = tested on: HT-22; test: Neuroprotective activity against glutamate-induced cell death in mouse HT22 cells at 5 uM preincubated for 10 hrs followed by glutamate challenge and measured after 24 hrs by fluorescence inverted microscopic analysis; type: functional, cell-based
[27] = target: T2, Protein cereblon/Glycogen synthase kinase-3 beta (Rattus norvegicus); test: Protac activity at CRBN/GSK3beta in rat PC12 cells assessed as GSK3beta degradation by measuring GSK3beta protein level at 20 uM after 10 hrs by Western blotting analysis (reference value: 100 %); type: cell-based; conditions: PC-12

SMILES: CNC(=O)c1sc(-c2ccnc(NC(=O)C3CC3)c2)nc1OCCCCCCCCCCCCOc1cccc2c1C(=O)N(C1CCC(=O)NC1=O)C2=O (stereo not drawn)
- IC50 [1]: 0.098 µM
- GSK3beta protein level remaining [2]: 58.1%

SMILES: CNC(=O)c1sc(-c2ccnc(NC(=O)C3CC3)c2)nc1OCCOCCOCCOCCOCCOc1cccc2c1C(=O)N(C1CCC(=O)NC1=O)C2=O (stereo not drawn)
- IC50 [1]: 0.0693 µM
- GSK3beta protein level remaining [2]: 95.5%

SMILES: NC(=O)c1sc(-c2ccnc(NC(=O)C3CC3)c2)nc1OCCOCC#Cc1cccc2c1CN(C1CCC(=O)NC1=O)C2=O (stereo not drawn)
- IC50 [1]: 0.0638 µM
- GSK3beta protein level remaining [2]: 86.9%

SMILES: NC(=O)c1sc(-c2ccnc(NC(=O)C3CC3)c2)nc1OCCOCC#Cc1ccc2c(c1)C(=O)N(C1CCC(=O)NC1=O)C2=O (stereo not drawn)
- IC50 [1]: 0.0277 µM
- GSK3beta protein level remaining [2]: 75.3%

SMILES: COc1nc(-c2ccnc(NC(=O)C3CC3)c2)sc1C(=O)NCCCNC(=O)COc1cccc2c1C(=O)N(C1CCC(=O)NC1=O)C2=O (stereo not drawn)
- IC50 [1]: 0.874 µM

SMILES: CNC(=O)c1sc(-c2ccnc(NC(=O)C3CC3)c2)nc1OCCOCCOCCOc1cccc2c1C(=O)N(C1CCC(=O)NC1=O)C2=O (stereo not drawn)
- IC50 [1]: 0.105 µM
- GSK3beta protein level remaining [2]: 92.8%

SMILES: CNC(=O)c1sc(-c2ccnc(NC(=O)C3CC3)c2)nc1OCCCCCCCCCCOc1cccc2c1C(=O)N(C1CCC(=O)NC1=O)C2=O (stereo not drawn)
- IC50 [1]: 0.0704 µM
- GSK3beta protein level remaining [2]: 85.6%

SMILES: CNC(=O)c1sc(-c2ccnc(NC(=O)C3CC3)c2)nc1OCCOCCOCCOCCn1cc(COc2cccc3c2C(=O)N(C2CCC(=O)NC2=O)C3=O)nn1 (stereo not drawn)
- IC50 [1]: 0.0795 µM
- GSK3beta protein level remaining [2]: 54%

SMILES: CNC(=O)c1sc(-c2ccnc(NC(=O)C3CC3)c2)nc1OCCCCCCCCn1cc(COc2cccc3c2C(=O)N(C2CCC(=O)NC2=O)C3=O)nn1 (stereo not drawn)
- IC50 [1]: 0.0831 µM
- GSK3beta protein level remaining [2]: 25.2%
- Activity [3]: 109%
- Activity [4]: 55.8%
- Activity [5]: 36.5%
- Activity [6]: 16.7%
- Activity [7]: 96.6%
- Activity [8]: 102%
- Activity [9]: Dose-dependent effect
- inhibition [10]: 3.27%
- inhibition [11]: 3.65%
- inhibition [12]: 4.09%
- inhibition [13]: 4.01%
- inhibition [14]: 13.8%
- inhibition [15]: 1.78%
- inhibition [16]: 19.6%
- inhibition [17]: 40.4%
- inhibition [18]: 18.4%
- inhibition [19]: 81.5%
- inhibition [20]: 88.9%
- inhibition [21]: 6.94%
- inhibition [22]: 5.63%
- inhibition [23]: 5.84%
- inhibition [24]: 6.79%
- Activity [25]: Active
- Activity [26]: Active

SMILES: CNC(=O)c1sc(-c2ccnc(NC(=O)C3CC3)c2)nc1OCCCCCCCCOc1cccc2c1C(=O)N(C1CCC(=O)NC1=O)C2=O (stereo not drawn)
- IC50 [1]: 0.0238 µM
- GSK3beta protein level remaining [2]: 95.6%

SMILES: NC(=O)c1sc(-c2ccnc(NC(=O)C3CC3)c2)nc1OCCC#Cc1ccc2c(c1)C(=O)N(C1CCC(=O)NC1=O)C2=O (stereo not drawn)
- IC50 [1]: > 1 µM

SMILES: CNC(=O)c1sc(-c2ccnc(NC(=O)C3CC3)c2)nc1OCCCC#Cc1ccc2c(c1)C(=O)N(C1CCC(=O)NC1=O)C2=O (stereo not drawn)
- IC50 [1]: 0.0791 µM
- GSK3beta protein level remaining [2]: 99.2%

SMILES: CNC(=O)c1sc(-c2ccnc(NC(=O)C3CC3)c2)nc1OCCCCCCOc1cccc2c1C(=O)N(C1CCC(=O)NC1=O)C2=O (stereo not drawn)
- IC50 [1]: 0.0716 µM

SMILES: CNC(=O)c1sc(-c2ccnc(NC(=O)C3CC3)c2)nc1OCCOCC#Cc1ccc2c(c1)C(=O)N(C1CCC(=O)NC1=O)C2=O (stereo not drawn)
- IC50 [1]: 0.0197 µM
- GSK3beta protein level remaining [2]: 68.8%

SMILES: CNC(=O)c1sc(-c2ccnc(NC(=O)C3CC3)c2)nc1OCCOCC#Cc1cccc2c1CN(C1CCC(=O)NC1=O)C2=O (stereo not drawn)
- IC50 [1]: 0.0492 µM
- GSK3beta protein level remaining [2]: 89.7%

SMILES: CNC(=O)c1sc(-c2ccnc(NC(=O)C3CC3)c2)nc1OCCCC#Cc1cccc2c1CN(C1CCC(=O)NC1=O)C2=O (stereo not drawn)
- IC50 [1]: 0.295 µM
- GSK3beta protein level remaining [2]: 85.1%

SMILES: CNC(=O)c1sc(-c2ccnc(NC(=O)C3CC3)c2)nc1OCCOCCOCCn1cc(COc2cccc3c2C(=O)N(C2CCC(=O)NC2=O)C3=O)nn1 (stereo not drawn)
- IC50 [1]: 0.0469 µM
- GSK3beta protein level remaining [2]: 62.7%

SMILES: CNC(=O)c1sc(-c2ccnc(NC(=O)C3CC3)c2)nc1OCCOCCOCCOCCOc1cccc2c1C(=O)N(C1CCC(=O)NC1=O)C2=O (stereo not drawn)
- IC50 [1]: 0.0732 µM
- GSK3beta protein level remaining [2]: 71.2%

SMILES: NC(=O)c1sc(-c2ccnc(NC(=O)C3CC3)c2)nc1O
- GSK3beta protein level remaining [2]: 104%
- Activity [27]: 111%

SMILES: COc1nc(-c2ccnc(NC(=O)C3CC3)c2)sc1C(=O)NCCCCNC(=O)COc1cccc2c1C(=O)N(C1CCC(=O)NC1=O)C2=O (stereo not drawn)
- IC50 [1]: 0.639 µM

SMILES: CNC(=O)c1sc(-c2ccnc(NC(=O)C3CC3)c2)nc1OCCC#Cc1cccc2c1CN(C1CCC(=O)NC1=O)C2=O (stereo not drawn)
- IC50 [1]: > 1 µM

SMILES: Nc1cccc2c1C(=O)N(C1CCC(=O)NC1=O)C2=O (stereo not drawn)
- GSK3beta protein level remaining [2]: 109%

SMILES: COc1nc(-c2ccnc(NC(=O)C3CC3)c2)sc1C(=O)NCCCCCCNC(=O)COc1cccc2c1C(=O)N(C1CCC(=O)NC1=O)C2=O (stereo not drawn)
- IC50 [1]: 0.243 µM
